Assay results reported in paper PMC4917279 (Journal of Medicinal Chemistry, 2016).

Columns and labels:
SYK = target: T1, SYK (Homo sapiens, UniProt P43405); assay: KINOMEscan; type: binding; conditions: read-out: %Ctrl @ 1000 nM
T1 construct: purchased DiscoveRx KINOMEscan

SRMS = target: T2, SRMS (Homo sapiens, UniProt Q9H3Y6); assay: KINOMEscan; type: binding; conditions: read-out: %Ctrl @ 1000 nM
T2 construct: purchased DiscoveRx KINOMEscan

CASK = target: T3, CASK (Homo sapiens, UniProt O14936); assay: KINOMEscan; type: binding; conditions: read-out: %Ctrl @ 1000 nM
T3 construct: purchased DiscoveRx KINOMEscan

EGFR(L747-T751del,Sins) = target: T4, EGFR(L747-T751del,Sins) (Homo sapiens, UniProt P00533, DEL747-750/T751S); assay: KINOMEscan; type: binding; conditions: read-out: %Ctrl @ 1000 nM
T4 construct: purchased DiscoveRx KINOMEscan

[1] = target: T5, JAK1(JH1domain-catalytic) (Homo sapiens, UniProt P23458); assay: KINOMEscan; type: binding; conditions: read-out: %Ctrl @ 1000 nM
T5 construct: JAK1(JH1domain-catalytic); purchased DiscoveRx KINOMEscan

CLK2 = target: T6, CLK2 (Homo sapiens, UniProt P49760); assay: KINOMEscan; type: binding; conditions: read-out: %Ctrl @ 1000 nM
T6 construct: purchased DiscoveRx KINOMEscan
T6 sequence (P49760 whole entry): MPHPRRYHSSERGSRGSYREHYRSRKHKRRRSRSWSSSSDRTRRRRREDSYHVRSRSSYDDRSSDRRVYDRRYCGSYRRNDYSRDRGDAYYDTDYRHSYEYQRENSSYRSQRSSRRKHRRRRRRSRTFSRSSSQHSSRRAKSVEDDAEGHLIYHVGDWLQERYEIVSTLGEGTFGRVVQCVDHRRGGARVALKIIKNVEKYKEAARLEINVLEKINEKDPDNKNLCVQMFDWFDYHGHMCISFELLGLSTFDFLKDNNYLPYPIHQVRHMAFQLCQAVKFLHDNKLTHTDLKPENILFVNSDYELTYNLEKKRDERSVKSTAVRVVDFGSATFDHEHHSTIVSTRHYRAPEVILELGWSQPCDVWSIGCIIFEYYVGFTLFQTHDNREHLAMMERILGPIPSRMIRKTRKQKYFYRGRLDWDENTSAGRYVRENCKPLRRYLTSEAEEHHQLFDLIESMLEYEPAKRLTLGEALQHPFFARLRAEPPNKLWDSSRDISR

IRAK4 = target: T7, IRAK4 (Homo sapiens, UniProt Q9NWZ3); assay: KINOMEscan; type: binding; conditions: read-out: %Ctrl @ 1000 nM
T7 construct: purchased DiscoveRx KINOMEscan

AMPK-alpha2 = target: T8, AMPK-alpha2 (Homo sapiens, UniProt P54646); assay: KINOMEscan; type: binding; conditions: read-out: %Ctrl @ 1000 nM
T8 construct: purchased DiscoveRx KINOMEscan

[2] = target: T9, RSK2(Kin.Dom.2-C-terminal) (Homo sapiens, UniProt P51812); assay: KINOMEscan; type: binding; conditions: read-out: %Ctrl @ 1000 nM
T9 construct: RSK2(Kin.Dom.2-C-terminal); purchased DiscoveRx KINOMEscan

STK36 = target: T10, STK36 (Homo sapiens, UniProt Q9NRP7); assay: KINOMEscan; type: binding; conditions: read-out: %Ctrl @ 1000 nM
T10 construct: purchased DiscoveRx KINOMEscan

ALK = target: T11, ALK (Homo sapiens, UniProt Q9UM73); assay: KINOMEscan; type: binding; conditions: read-out: %Ctrl @ 1000 nM
T11 construct: purchased DiscoveRx KINOMEscan
T11 sequence (Q9UM73 19-1620): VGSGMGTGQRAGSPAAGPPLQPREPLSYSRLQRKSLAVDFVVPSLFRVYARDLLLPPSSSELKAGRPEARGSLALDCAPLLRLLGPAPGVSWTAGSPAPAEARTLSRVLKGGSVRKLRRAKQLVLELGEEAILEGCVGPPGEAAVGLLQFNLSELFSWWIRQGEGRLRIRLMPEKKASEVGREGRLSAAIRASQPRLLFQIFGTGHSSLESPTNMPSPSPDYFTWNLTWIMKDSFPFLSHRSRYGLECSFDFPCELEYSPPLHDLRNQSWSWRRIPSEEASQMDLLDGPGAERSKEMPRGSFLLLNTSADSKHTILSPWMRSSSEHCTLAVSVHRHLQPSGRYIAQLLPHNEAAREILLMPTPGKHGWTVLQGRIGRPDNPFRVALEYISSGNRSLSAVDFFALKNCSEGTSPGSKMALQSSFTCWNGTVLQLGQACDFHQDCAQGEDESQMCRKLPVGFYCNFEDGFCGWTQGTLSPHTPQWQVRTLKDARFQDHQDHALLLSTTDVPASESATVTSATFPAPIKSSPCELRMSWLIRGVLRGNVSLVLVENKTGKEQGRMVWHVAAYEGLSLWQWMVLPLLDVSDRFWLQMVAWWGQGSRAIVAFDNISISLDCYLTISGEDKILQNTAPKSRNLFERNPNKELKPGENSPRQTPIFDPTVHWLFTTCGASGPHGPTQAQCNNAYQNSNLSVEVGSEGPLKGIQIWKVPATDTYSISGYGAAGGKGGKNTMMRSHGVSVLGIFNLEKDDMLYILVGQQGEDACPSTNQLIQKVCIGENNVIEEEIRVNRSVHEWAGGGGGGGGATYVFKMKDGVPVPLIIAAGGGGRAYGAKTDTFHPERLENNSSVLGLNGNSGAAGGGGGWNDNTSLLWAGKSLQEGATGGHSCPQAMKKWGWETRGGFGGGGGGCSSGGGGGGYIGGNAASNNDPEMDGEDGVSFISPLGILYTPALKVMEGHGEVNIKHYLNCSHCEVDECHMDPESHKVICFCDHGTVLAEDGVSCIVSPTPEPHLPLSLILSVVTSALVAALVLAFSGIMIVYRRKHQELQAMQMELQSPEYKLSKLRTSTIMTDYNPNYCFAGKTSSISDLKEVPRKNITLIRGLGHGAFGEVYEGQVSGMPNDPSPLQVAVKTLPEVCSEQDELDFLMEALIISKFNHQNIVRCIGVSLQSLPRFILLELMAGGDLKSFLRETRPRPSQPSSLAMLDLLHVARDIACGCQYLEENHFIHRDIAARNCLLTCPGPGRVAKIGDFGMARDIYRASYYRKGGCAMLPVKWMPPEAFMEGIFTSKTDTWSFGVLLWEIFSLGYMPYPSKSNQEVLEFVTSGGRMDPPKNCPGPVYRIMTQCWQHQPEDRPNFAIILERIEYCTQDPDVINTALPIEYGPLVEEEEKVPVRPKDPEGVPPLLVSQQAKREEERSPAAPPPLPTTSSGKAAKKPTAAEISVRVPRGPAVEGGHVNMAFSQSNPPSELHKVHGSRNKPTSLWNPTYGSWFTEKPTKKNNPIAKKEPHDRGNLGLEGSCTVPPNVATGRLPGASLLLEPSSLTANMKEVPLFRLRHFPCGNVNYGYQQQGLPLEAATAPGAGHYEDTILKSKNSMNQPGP

CSNK1G3 = target: T12, CSNK1G3 (Homo sapiens, UniProt Q9Y6M4); assay: KINOMEscan; type: binding; conditions: read-out: %Ctrl @ 1000 nM
T12 construct: purchased DiscoveRx KINOMEscan

IKK-alpha = target: T13, IKK-alpha (Homo sapiens, UniProt O15111); assay: KINOMEscan; type: binding; conditions: read-out: %Ctrl @ 1000 nM
T13 construct: purchased DiscoveRx KINOMEscan

PIM3 = target: T14, PIM3 (Homo sapiens, UniProt Q86V86); assay: KINOMEscan; type: binding; conditions: read-out: %Ctrl @ 1000 nM
T14 construct: purchased DiscoveRx KINOMEscan

PDGFRB = target: T15, PDGFRB (Homo sapiens, UniProt P09619); assay: KINOMEscan; type: binding; conditions: read-out: %Ctrl @ 1000 nM
T15 construct: purchased DiscoveRx KINOMEscan

ROCK2 = target: T16, ROCK2 (Homo sapiens, UniProt O75116); assay: KINOMEscan; type: binding; conditions: read-out: %Ctrl @ 1000 nM
T16 construct: purchased DiscoveRx KINOMEscan

PAK6 = target: T17, PAK6 (Homo sapiens, UniProt Q9NQU5); assay: KINOMEscan; type: binding; conditions: read-out: %Ctrl @ 1000 nM
T17 construct: purchased DiscoveRx KINOMEscan
T17 sequence (Q9NQU5 whole entry): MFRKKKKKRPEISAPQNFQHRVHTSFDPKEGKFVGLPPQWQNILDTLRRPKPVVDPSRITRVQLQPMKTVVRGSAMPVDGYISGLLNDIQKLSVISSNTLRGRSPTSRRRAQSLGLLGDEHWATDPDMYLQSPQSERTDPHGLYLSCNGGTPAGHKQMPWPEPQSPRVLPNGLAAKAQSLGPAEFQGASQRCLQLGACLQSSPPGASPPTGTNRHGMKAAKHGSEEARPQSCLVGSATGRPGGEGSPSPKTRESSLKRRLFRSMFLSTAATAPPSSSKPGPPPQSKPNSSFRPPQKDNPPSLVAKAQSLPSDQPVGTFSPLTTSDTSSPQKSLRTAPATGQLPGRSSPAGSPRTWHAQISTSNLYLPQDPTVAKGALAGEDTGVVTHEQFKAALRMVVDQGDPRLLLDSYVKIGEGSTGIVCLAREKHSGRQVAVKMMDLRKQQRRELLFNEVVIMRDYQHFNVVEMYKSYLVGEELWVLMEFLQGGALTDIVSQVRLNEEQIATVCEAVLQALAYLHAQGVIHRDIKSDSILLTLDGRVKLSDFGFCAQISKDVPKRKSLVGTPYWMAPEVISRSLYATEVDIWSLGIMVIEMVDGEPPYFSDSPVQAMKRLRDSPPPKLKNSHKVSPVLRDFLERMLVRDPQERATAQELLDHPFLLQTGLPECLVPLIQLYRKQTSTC

MST1R = target: T18, MST1R (Homo sapiens, UniProt Q04912); assay: KINOMEscan; type: binding; conditions: read-out: %Ctrl @ 1000 nM
T18 construct: purchased DiscoveRx KINOMEscan

CSNK1E = target: T19, CSNK1E (Homo sapiens, UniProt P49674); assay: KINOMEscan; type: binding; conditions: read-out: %Ctrl @ 1000 nM
T19 construct: purchased DiscoveRx KINOMEscan

PIK3CA(M1043I) = target: T20, PIK3CA(M1043I) (Homo sapiens, UniProt P42336, M1043I); assay: KINOMEscan; type: binding; conditions: read-out: %Ctrl @ 1000 nM
T20 construct: purchased DiscoveRx KINOMEscan

SMYD2 = SMYD2 (Homo sapiens, UniProt Q9NRG4); assay: Western blot of SY46 methylation signal in SMYD2 overexpressing KYSE150 cells, time course; type: cell-based; parameters: expressed in transfected cells; conditions: 10 µM
SMYD2, sequence (Q9NRG4 whole entry): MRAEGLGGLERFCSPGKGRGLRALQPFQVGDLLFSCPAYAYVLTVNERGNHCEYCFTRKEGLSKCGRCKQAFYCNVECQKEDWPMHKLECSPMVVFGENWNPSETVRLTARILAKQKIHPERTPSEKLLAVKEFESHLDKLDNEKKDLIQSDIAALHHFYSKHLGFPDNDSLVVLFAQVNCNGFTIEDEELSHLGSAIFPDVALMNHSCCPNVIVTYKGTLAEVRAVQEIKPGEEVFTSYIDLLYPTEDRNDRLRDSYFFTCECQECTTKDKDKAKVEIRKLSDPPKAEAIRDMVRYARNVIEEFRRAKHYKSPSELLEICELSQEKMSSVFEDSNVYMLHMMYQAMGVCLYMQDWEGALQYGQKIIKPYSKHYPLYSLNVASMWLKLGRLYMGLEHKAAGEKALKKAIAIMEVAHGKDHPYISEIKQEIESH
From the text: 3. Figure S2 Validation of AHNAK as SMYD2 substrate
Figure S2 (A) Overexpression of SMYD2 in KYSE.150 cells. SMYD2 is primarily detected in the cytosol. One SMYD2 overexpressing and one non.overexpressing cell are highlighted by arrows. The methylation signal detected by SY46 is overlapping with the SMYD2 overexpressing cells (B) Western blot analysis of SMYD2 overexpressing or parental KYSE150 cells. SY46 methylation antibody detects a strong increase in methylation signal in the high molecular weight region in SMYD2 overexpressing cells. (Later we discovered AHNAK as the high molecular substrate of around 630 kDa. Due to the high molecular weight of AHNAK and partial degradation different fragments are detected.) (C) Western blot analysis of SMYD2 overexpressing KYSE150 cells treated with DMSO or 10 µM of either AZ505 or (S).4 and harvested after the indicated time points. The methylation signal detected by SY46 was reduced in a time dependent manner. (D) Only expression of SMYD2 leads to specific methylation signals detected by SY46. Western blot analysis of a transient overexpression of wildtype (SMYD2WT /SMYD3WT) or enzymatically point mutants (SMYD2H207A/SMYD3N205A) of either SMYD2 or SMYD3 in MDA.MB231 or HeLa cells. Only in SMYD2WT cells a methylation signal is detected. Expression of green fluorescence protein (GFP) was used as control (E) […]

BLK = target: T21, BLK (Homo sapiens, UniProt P51451); assay: KINOMEscan; type: binding; conditions: read-out: %Ctrl @ 1000 nM
T21 construct: purchased DiscoveRx KINOMEscan

WEE2 = target: T22, WEE2 (Homo sapiens, UniProt P0C1S8); assay: KINOMEscan; type: binding; conditions: read-out: %Ctrl @ 1000 nM
T22 construct: purchased DiscoveRx KINOMEscan

NEK7 = target: T23, NEK7 (Homo sapiens, UniProt Q8TDX7); assay: KINOMEscan; type: binding; conditions: read-out: %Ctrl @ 1000 nM
T23 construct: purchased DiscoveRx KINOMEscan

FLT3(D835H) = target: T24, FLT3(D835H) (Homo sapiens, UniProt P36888, D835H); assay: KINOMEscan; type: binding; conditions: read-out: %Ctrl @ 1000 nM
T24 construct: purchased DiscoveRx KINOMEscan

MKNK1 = target: T25, MKNK1 (Homo sapiens, UniProt Q9BUB5); assay: KINOMEscan; type: binding; conditions: read-out: %Ctrl @ 1000 nM
T25 construct: purchased DiscoveRx KINOMEscan

CSNK1D = target: T26, CSNK1D (Homo sapiens, UniProt P48730); assay: KINOMEscan; type: binding; conditions: read-out: %Ctrl @ 1000 nM
T26 construct: purchased DiscoveRx KINOMEscan
T26 sequence (P48730 whole entry): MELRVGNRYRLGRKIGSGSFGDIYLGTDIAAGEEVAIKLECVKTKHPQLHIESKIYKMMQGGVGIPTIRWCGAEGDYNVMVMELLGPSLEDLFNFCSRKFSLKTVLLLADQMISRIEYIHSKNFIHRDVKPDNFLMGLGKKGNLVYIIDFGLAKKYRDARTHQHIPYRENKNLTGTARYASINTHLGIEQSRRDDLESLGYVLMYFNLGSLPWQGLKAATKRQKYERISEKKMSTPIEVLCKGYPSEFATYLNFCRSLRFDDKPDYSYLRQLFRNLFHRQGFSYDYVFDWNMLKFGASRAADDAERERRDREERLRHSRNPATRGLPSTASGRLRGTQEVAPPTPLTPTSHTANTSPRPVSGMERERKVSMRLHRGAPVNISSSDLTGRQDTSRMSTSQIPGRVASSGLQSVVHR

CSF1R-autoinhibited = target: T27, CSF1R-autoinhibited (Homo sapiens, UniProt P07333); assay: KINOMEscan; type: binding; conditions: read-out: %Ctrl @ 1000 nM
T27 construct: purchased DiscoveRx KINOMEscan

STK16 = target: T28, STK16 (Homo sapiens, UniProt O75716); assay: KINOMEscan; type: binding; conditions: read-out: %Ctrl @ 1000 nM
T28 construct: purchased DiscoveRx KINOMEscan
T28 sequence (O75716 whole entry): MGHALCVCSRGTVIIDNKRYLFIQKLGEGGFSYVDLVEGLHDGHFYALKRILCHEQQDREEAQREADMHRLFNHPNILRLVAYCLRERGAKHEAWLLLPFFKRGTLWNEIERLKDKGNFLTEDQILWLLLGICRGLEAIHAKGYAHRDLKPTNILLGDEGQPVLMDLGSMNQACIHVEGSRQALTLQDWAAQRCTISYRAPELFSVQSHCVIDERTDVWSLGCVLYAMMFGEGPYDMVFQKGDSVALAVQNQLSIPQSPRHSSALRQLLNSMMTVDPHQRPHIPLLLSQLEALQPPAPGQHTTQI

CAMK2D = target: T29, CAMK2D (Homo sapiens, UniProt Q13557); assay: KINOMEscan; type: binding; conditions: read-out: %Ctrl @ 1000 nM
T29 construct: purchased DiscoveRx KINOMEscan
T29 sequence (Q13557 whole entry): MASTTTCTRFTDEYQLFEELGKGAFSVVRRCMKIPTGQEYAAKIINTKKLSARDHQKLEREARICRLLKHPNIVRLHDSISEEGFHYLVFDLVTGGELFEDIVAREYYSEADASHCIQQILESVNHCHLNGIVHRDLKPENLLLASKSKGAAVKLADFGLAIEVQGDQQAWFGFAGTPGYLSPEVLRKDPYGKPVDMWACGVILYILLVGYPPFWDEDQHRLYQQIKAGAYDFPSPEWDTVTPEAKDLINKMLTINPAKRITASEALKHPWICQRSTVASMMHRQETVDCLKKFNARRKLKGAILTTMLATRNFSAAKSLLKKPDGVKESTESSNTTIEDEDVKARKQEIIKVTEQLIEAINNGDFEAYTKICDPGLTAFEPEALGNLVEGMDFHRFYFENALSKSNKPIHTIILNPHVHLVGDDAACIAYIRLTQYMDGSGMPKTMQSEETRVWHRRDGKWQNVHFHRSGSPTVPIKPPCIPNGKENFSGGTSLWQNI

BTK = target: T30, BTK (Homo sapiens, UniProt Q06187); assay: KINOMEscan; type: binding; conditions: read-out: %Ctrl @ 1000 nM
T30 construct: purchased DiscoveRx KINOMEscan

p38-beta = target: T31, p38-beta (Homo sapiens, UniProt Q15759); assay: KINOMEscan; type: binding; conditions: read-out: %Ctrl @ 1000 nM
T31 construct: purchased DiscoveRx KINOMEscan

MET(M1250T) = target: T32, MET(M1250T) (Homo sapiens, UniProt P08581, M1250T); assay: KINOMEscan; type: binding; conditions: read-out: %Ctrl @ 1000 nM
T32 construct: purchased DiscoveRx KINOMEscan

T2 sequence (Q9H3Y6 whole entry): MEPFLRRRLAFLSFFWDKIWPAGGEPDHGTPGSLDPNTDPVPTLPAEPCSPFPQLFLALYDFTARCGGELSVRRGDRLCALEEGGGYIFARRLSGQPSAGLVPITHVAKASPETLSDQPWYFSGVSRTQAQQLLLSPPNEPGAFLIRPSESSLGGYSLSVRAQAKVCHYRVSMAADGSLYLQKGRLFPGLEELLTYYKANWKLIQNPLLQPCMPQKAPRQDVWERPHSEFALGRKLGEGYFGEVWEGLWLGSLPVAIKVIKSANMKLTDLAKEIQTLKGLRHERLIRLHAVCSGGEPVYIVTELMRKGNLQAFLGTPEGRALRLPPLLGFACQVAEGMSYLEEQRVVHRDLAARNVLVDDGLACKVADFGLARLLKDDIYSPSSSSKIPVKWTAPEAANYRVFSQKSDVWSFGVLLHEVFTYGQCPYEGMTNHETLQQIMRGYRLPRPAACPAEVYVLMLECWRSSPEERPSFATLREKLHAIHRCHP

## CCN(C(=O)CO)[C@H]1CN(/C(=N\C#N)Nc2cccc(OC(F)F)c2)N=C1c1ccc(Cl)c(Cl)c1 [(S)-4]
SYK
  remaining binding at 1 µM: 59%
SRMS
  remaining binding at 1 µM: 94%
CASK
  remaining binding at 1 µM: 61%
EGFR(L747-T751del,Sins)
  remaining binding at 1 µM: 70%
[1]
  remaining binding at 1 µM: 85%
CLK2
  remaining binding at 1 µM: 97%
IRAK4
  remaining binding at 1 µM: 100%
AMPK-alpha2
  remaining binding at 1 µM: 85%
[2]
  remaining binding at 1 µM: 100%
STK36
  remaining binding at 1 µM: 81%
ALK
  remaining binding at 1 µM: 93%
CSNK1G3
  remaining binding at 1 µM: 79%
IKK-alpha
  remaining binding at 1 µM: 92%
PIM3
  remaining binding at 1 µM: 88%
PDGFRB
  remaining binding at 1 µM: 100%
ROCK2
  remaining binding at 1 µM: 95%
PAK6
  remaining binding at 1 µM: 100%
MST1R
  remaining binding at 1 µM: 81%
CSNK1E
  remaining binding at 1 µM: 86%
PIK3CA(M1043I)
  remaining binding at 1 µM: 68%
SMYD2
  Methylation signal detected by SY46: reduced
BLK
  remaining binding at 1 µM: 88%
WEE2
  remaining binding at 1 µM: 100%
NEK7
  remaining binding at 1 µM: 100%
FLT3(D835H)
  remaining binding at 1 µM: 93%
MKNK1
  remaining binding at 1 µM: 100%
CSNK1D
  remaining binding at 1 µM: 100%
CSF1R-autoinhibited
  remaining binding at 1 µM: 47%
STK16
  remaining binding at 1 µM: 84%
CAMK2D
  remaining binding at 1 µM: 96%
BTK
  remaining binding at 1 µM: 79%
p38-beta
  remaining binding at 1 µM: 100%
MET(M1250T)
  remaining binding at 1 µM: 86%
